Where two headings read alike, the source gives them in different places. Marks after values point to notes of the source that are not given here. Starred links: 1 amine or outer side, 2 acyl side, 3 side chain; linkers in the order of their positions; H or OH if unused. Non-standard residues stand in square brackets, D forms with d. Residues, ends and D or L forms follow the SMILES beside them. Groups on a side chain read outwards from the residue. *: point of attachment. C18 diacid = O=C(O)CCCCCCCCCCCCCCCCC(=O)*; γGlu = O=C(O)[C@H](CCC(=O)[*:2])N[*:1]; εLys = N[C@@H](CCCCN[*:1])C(=O)[*:2]; Aib = CC(C)(N)C(=O)O
What was measured:
[1] = Pharmacokinetic study in dogs after oral dosing of tablets with SNAC; format: in vivo, Beagle dogs; conditions: for half-life / Tmax: male
In short: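 The tablets held 3-4 mg compound plus 100-300 mg SNAC and were given to fasted male beagles (6-8 per group); non-compartmental PK per animal.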

human GLP-1 receptor = human GLP-1 receptor (Homo sapiens, UniProt P43220); test: In vitro functional potency, CRE luciferase reporter, whole BHK cells (hGLP-1R); format: cell-based; parameters: expressed in transfected cells; host or cells: BHK (parent line BHKTS13), clone BHK CRE luc2P hGLP-1R; conditions: BHK CRE luc2P hGLP-1R cells
In short: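 Potencies are replicate means (n≥2) from non-linear log(agonist) vs response fits of CRE-driven luminescence. Cells were overnight-plated BHK CRE luc2P lines transfected with human GIPR or GLP-1R, 5000/well.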

[2] = oral tablet, SNAC 300 mg, test substance 3 mg, Beagle dogs, arithmetic mean
[3] = hGLP-1R, CRE Luc 1% HSA EC50, 1% HSA
[4] = 0% HSA, read-out: hGLP-1R, CRE Luc 0% HSA EC50

human GLP-1 receptor, sequence (P43220 24-463): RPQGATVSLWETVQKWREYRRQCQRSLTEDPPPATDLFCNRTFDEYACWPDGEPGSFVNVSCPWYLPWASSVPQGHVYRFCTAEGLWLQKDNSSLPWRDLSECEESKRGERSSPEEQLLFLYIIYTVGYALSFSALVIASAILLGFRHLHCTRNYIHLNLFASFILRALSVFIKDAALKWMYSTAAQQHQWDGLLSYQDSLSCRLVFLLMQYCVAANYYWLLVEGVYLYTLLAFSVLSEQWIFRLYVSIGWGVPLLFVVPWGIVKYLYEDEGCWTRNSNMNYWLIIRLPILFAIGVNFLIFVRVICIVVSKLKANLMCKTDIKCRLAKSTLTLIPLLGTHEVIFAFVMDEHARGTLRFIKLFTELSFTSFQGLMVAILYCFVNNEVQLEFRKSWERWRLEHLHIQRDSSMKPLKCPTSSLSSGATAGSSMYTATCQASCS

Structure (SMILES)	half-life ([1]; dog, in vivo, oral tablet, SNAC 300 mg, test substance 3 mg, Beagle dogs, harmonic mean, read-out: t1/2 (converted)) [h]	Tmax ([1]; dog, in vivo, oral tablet, SNAC 300 mg, test substance 3 mg, Beagle dogs, median, read-out: Tmax) [h]	AUC/Dose [1, 2]	Cmax/Dose [1, 2]	EC50 (human GLP-1 receptor; hGLP-1R, CRE Luc 0% HSA EC50, 0% HSA) [nM]	EC50 (human GLP-1 receptor; [3]) [nM]	AUC/Dose ([1]; dog, in vivo, po)	Cmax/Dose ([1]; dog, in vivo, po)	Tmax ([1]; Beagle, dog, in vivo, po) [h]	half-life ([1]; Beagle, dog, in vivo, po) [h]	EC50 (human GLP-1 receptor; [4]) [nM]
CC[C@H](C)[C@H](NC(=O)[C@H](Cc1ccccc1)NC(=O)[C@H](CCC(=O)O)NC(=O)[C@H](CCCNC(=N)N)NC(=O)[C@H](C)NC(=O)[C@H](C)NC(=O)[C@H](CCC(N)=O)NC(=O)[C@H](CCCCNC(=O)[C@@H](N)CCCCNC(=O)[C@@H](N)CCCCNC(=O)CC[C@H](NC(=O)CCCCCCCCCCCCCCCCC(=O)O)C(=O)O)NC(=O)[C@H](CCC(=O)O)NC(=O)[C@H](CC(C)C)NC(=O)[C@H](CC(C)C)NC(=O)[C@@H](NC(=O)[C@H](CO)NC(=O)[C@H](Cc1ccc(O)cc1)NC(=O)[C@H](CC(=O)O)NC(=O)[C@H](CO)NC(=O)[C@@H](NC(=O)[C@H](Cc1ccccc1)NC(=O)[C@@H](NC(=O)CNC(=O)[C@H](CCC(=O)O)NC(=O)C(C)(C)NC(=O)[C@@H](N)Cc1ccc(O)cc1)[C@@H](C)O)[C@@H](C)O)[C@@H](C)CC)C(=O)N[C@@H](CCC(=O)O)C(=O)N[C@@H](Cc1c[nH]c2ccccc12)C(=O)N[C@@H](CC(C)C)C(=O)N[C@@H](CC(C)C)C(=O)N[C@@H](CCCNC(=N)N)C(=O)NCC(=O)NCC(=O)N1CCC[C@H]1C(=O)N[C@@H](CCC(=O)O)C(=O)N[C@@H](CO)C(=O)NCC(=O)N[C@@H](C)C(=O)N1CCC[C@H]1C(=O)N1CCC[C@H]1C(=O)N1CCC[C@H]1C(=O)N[C@@H](CO)C(=O)O [Compound 28] (H-Y[Aib]EGTFTSDYSILLEK([εLys-εLys-γGlu-C18 diacid])QAAREFIEWLLRGGPESGAPPPS-OH)	67	1.3	18.6** kg * h/L	0.36** kg/L	0.0062	0.139					
CC[C@H](C)[C@H](NC(=O)[C@H](Cc1ccccc1)NC(=O)[C@H](CCC(=O)O)NC(=O)[C@H](CCCNC(=N)N)NC(=O)[C@H](C)NC(=O)[C@H](C)NC(=O)[C@H](CCC(N)=O)NC(=O)[C@H](CCCCNC(=O)[C@@H](N)CCCCNC(=O)[C@@H](N)CCCCNC(=O)CC[C@H](NC(=O)CCCCCCCCCCCCCCCCC(=O)O)C(=O)O)NC(=O)[C@H](CCC(=O)O)NC(=O)[C@H](CC(C)C)NC(=O)[C@H](CC(C)C)NC(=O)[C@@H](NC(=O)[C@H](CO)NC(=O)[C@H](Cc1ccc(O)cc1)NC(=O)[C@H](CC(=O)O)NC(=O)[C@H](CO)NC(=O)[C@@H](NC(=O)[C@H](Cc1ccccc1)NC(=O)[C@@H](NC(=O)CNC(=O)[C@H](CCC(=O)O)NC(=O)C(C)(C)NC(=O)[C@@H](N)Cc1ccc(O)cc1)[C@@H](C)O)[C@@H](C)O)[C@@H](C)CC)C(=O)N[C@@H](CCC(=O)O)C(=O)N[C@@H](Cc1c[nH]c2ccccc12)C(=O)N[C@@H](CC(C)C)C(=O)N[C@@H](CC(C)C)C(=O)N[C@@H](C)C(=O)NCC(=O)NCC(=O)N1CCC[C@H]1C(=O)N[C@@H](CO)C(=O)N[C@@H](CO)C(=O)NCC(=O)N[C@@H](C)C(=O)N1CCC[C@H]1C(=O)N1CCC[C@H]1C(=O)N1CCC[C@H]1C(=O)N[C@@H](CO)C(=O)O [Compound 31] (H-Y[Aib]EGTFTSDYSILLEK([εLys-εLys-γGlu-C18 diacid])QAAREFIEWLLAGGPSSGAPPPS-OH)						0.202	17.9** kg * h/L	0.35** kg/L	1.3	56	0.0042
CC[C@H](C)[C@H](NC(=O)[C@H](Cc1ccccc1)NC(=O)[C@H](CCC(=O)O)NC(=O)[C@H](CCC(N)=O)NC(=O)[C@H](C)NC(=O)[C@H](C)NC(=O)[C@H](CCC(N)=O)NC(=O)[C@H](CCCCNC(=O)[C@@H](N)CCCCNC(=O)[C@@H](N)CCCCNC(=O)CC[C@H](NC(=O)CCCCCCCCCCCCCCCCC(=O)O)C(=O)O)NC(=O)[C@H](CCC(=O)O)NC(=O)[C@H](CC(C)C)NC(=O)[C@H](CC(C)C)NC(=O)[C@@H](NC(=O)[C@H](CO)NC(=O)[C@H](Cc1ccc(O)cc1)NC(=O)[C@H](CC(=O)O)NC(=O)[C@H](CO)NC(=O)[C@@H](NC(=O)[C@H](Cc1ccccc1)NC(=O)[C@@H](NC(=O)CNC(=O)[C@H](CCC(=O)O)NC(=O)C(C)(C)NC(=O)[C@@H](N)Cc1ccc(O)cc1)[C@@H](C)O)[C@@H](C)O)[C@@H](C)CC)C(=O)N[C@@H](CCC(=O)O)C(=O)N[C@@H](Cc1c[nH]c2ccccc12)C(=O)N[C@@H](CC(C)C)C(=O)N[C@@H](CC(C)C)C(=O)N[C@@H](C)C(=O)NCC(=O)NCC(=O)N1CCC[C@H]1C(=O)N[C@@H](CO)C(=O)N[C@@H](CO)C(=O)NCC(=O)N[C@@H](C)C(=O)N1CCC[C@H]1C(=O)N1CCC[C@H]1C(=O)N1CCC[C@H]1C(=O)N[C@@H](CO)C(=O)O [Compound 29] (H-Y[Aib]EGTFTSDYSILLEK([εLys-εLys-γGlu-C18 diacid])QAAQEFIEWLLAGGPSSGAPPPS-OH)						0.379	16.6** kg * h/L	0.26** kg/L	1.2	69	0.0168

Reference: patent US20220177538A1, “CO-AGONISTS AT GLP-1 AND GIP RECEPTORS SUITABLE FOR ORAL DELIVERY” (Novo Nordisk A/S, priority 2020, published 2022)
